Results taken from US11389411B2, “Pharmaceutical composition, containing NM23 activator, for inhibiting cancer metastasis” (EWHA UNIVERSITY—INDUSTRY COLLABORATION FOUNDATION, priority 2017, dated 2022).
Where two headings read alike, the source gives them in different places.

How the values were obtained:
Nm23-H1 [1] = target: T1, Nm23-H1 (Homo sapiens, UniProt P15531); assay: NDPK assay with recombinant Nm23-H1; format: biochemical; settings: for Relative NDPK activity (±S.D): relative to a DMSO-treated group (DMSO = 1)
T1 sequence (P15531 whole entry): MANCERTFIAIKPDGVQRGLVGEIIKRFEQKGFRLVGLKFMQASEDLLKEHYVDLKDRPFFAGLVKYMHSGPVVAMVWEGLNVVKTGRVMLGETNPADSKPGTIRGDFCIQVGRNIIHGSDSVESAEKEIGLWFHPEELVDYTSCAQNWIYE
Protocol: (§1) 5 ng of recombinant Nm23-H1 was incubated with 5 μM ADP and a test substance (the compound of Formula 2-1, 3-1 or 4-1) in NDPK assay buffer (20 mM HEPES, 3 mM MgCl2) at mom temperature for 1 minute, and cell-based NDPK assay was performed. A cell lysate obtained from 5,000K MDA-MB-231 cells lysed with a protease inhibitor cocktail and an NDPK assay buffer was centrifuged at 8,000 rpm for 10 minutes at 4° C. 40 μL of the lysate was incubated with the test substance for 5 minutes, and then 50 μM UDP was added thereto and reacted with NDPK. ATP consumption was assessed by an ATP determination kit (Molecular probe, USA).

Nm23-H1 [2] = target: T1, Nm23-H1; assay: Surface plasmon resonance analysis of interaction with immobilized Nm23-H1; format: binding; settings: SPR, 25° C.; for Kd: calculated Kd/Ka; for kon: read-out: Ka
Protocol: The interaction between the compound of Formula 2-1 and Nm23-H1 was analyzed using a surface plasmon resonance instrument (SR7500 DC, Reichert Inc., NY) at 25° C.
Nm23-H1 (1 mg/ml) in 10 mM S.A buffer (pH 4.5) was immobilized using the standard amino coupling at 20 μL/min for 10 minutes on a carboxymethyl dextran hydrogel (CMDH) surface sensor chip (Reichert Technologies, NY) until saturation was achieved.
Different concentrations of the compound of Formula 2-1 (10-160 μM) in binding buffer (10 mM HEPES, pH 7.4, 100 mM NaCl, 1 mM MgCl2, and with or without 2 mM ATP) were allowed to flow over the immobilized Nm23-H1 (approximately 8200 RU) at a rate of 30 μL/min.
The sensor surface was regenerated after each association and dissociation cycle by injecting 2M NaCl for 1 min. Sensorgrams were fitted to a simple 1:1 Langmuir interaction model (A+B⇄AB) using data analysis program Scrubber 2.0 (BioLogic Sofware, Australia, and Kaleida Graph Sofware, Australia).
KD is a value obtained by calculating Kd/Ka.

MDA-MB-231 luc cells = assay: Breast cancer metastasis model (MDA-MB-231 luc cells in mammary fat pad); format: in vivo, nude mice
Description: In order to confirm the metastasis suppressing activity of the compound of Formula 2-1 according to the present disclosure in an actual animal model, MDA-MB-231 luc cells were applied to a breast cancer metastasis model.

Nm23-H2 = Nm23-H2 (Homo sapiens, UniProt P22392); assay: NDPK activity assay on Nm23-H2; format: biochemical; settings: FIG. 3D
Nm23-H2, sequence (P22392 whole entry): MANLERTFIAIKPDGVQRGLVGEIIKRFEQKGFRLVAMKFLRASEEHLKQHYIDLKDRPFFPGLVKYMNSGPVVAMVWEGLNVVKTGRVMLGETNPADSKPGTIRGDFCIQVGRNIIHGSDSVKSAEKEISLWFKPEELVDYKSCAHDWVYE

Nm23-H1 [3] = target: T1, Nm23-H1; assay: Isothermal titration calorimetry; format: binding; settings: FIG. 4, with and without ATP
Protocol: An ITC experiment was performed using the ITC200 system (Malvern Inc.), and the data were analyzed using ORIGIN 7.0 program. The concentration of Nm23-H1 protein in the cells was 30 μM, and the syringe contained 300 μM of the activator or 1 mM ATP. The activator was prepared at a concentration of 50 mM in DMSO (dimethyl sulfoxide) and stored at −20° C. ITC buffer contained (pH 7.5) 150 mM NaCl, 3 mM MgCl2 and 20 mM HEPES in up to 2% DMSO. For titration, each 2 μL was injected 20 times 25° C. at intervals of 150 seconds. No evidence of DMSO binding at the nucleotide binding site was observed. The experimental raw data were corrected by subtracting the value for the buffer, and then fitted to a single site binding model. The titration data were fitted using a nonlinear least squares curve-fitting algorithm with three floating variables: stoichiometry (N), dissociation constant (KD), and change of enthalpy of interaction.

A549 cells = assay: Transwell migration and matrigel invasion of A549 cells; format: cell-based; settings: FIG. 7B
Protocol: (§2) When cells reached a confluence of 70%, the cells were treated with the compound of Formula 2-1 for 16 hours. 1×10^5 cells were suspended in PBS-free medium and added onto a Boyden chamber membrane. 10% PBS-containing culture was added to the bottom of the membrane. The chamber was incubated at 37° C. under 5% CO2 for 4 hours. The migrated cells were fixed and stained with crystal violet/methanol. The cells were photographed, and the migrated cells were counted and normalized to control cells.

MDA-MB-231 cells [4] = assay: Cell-based NDPK assay (MDA-MB-231 cell lysate); settings: FIG. 3C, MDA-MB-231 lysate, concentration dependence
Protocol: as §1

Rac1 = Rac1 activity assay (active Rac1 pulldown); format: cell-based
Protocol: MDA-MB-231 cells were grown in a 100 mm dish and treated with the compound of Formula 2-1 or 0.05% DMSO at an indicated concentration for 16 hours. Active Rac1 pulldown assays were performed according to the manufacturer's instructions (Termo Fisher Scientifc).

MDA-MB-231 cells [5] = assay: Invasion assay and transwell migration assay in MDA-MB-231 cells; format: cell-based
Protocol: as §2

MDA-MB-231 cells [6] = assay: Immunofluorescence analysis (F-actin, confocal microscopy); format: cell-based; settings: FIG. 6A
Protocol: MDA-MB-231 cells were grown on the Secureslip™ (Sigma) cell culture glass cover slip to a confluence of 50 to 70%, and incubated in the presence or absence of the compound of Formula 2-1 for various periods of time. The cells were gently washed with cold HBSS, and then fixed with 4% paraformaldehyde-containing HBSS in RBS for 10 minutes. After washing with HBSS, permeabilization with 0.1% Triton X-100 was performed for 10 minutes at mom temperature. After washing twice with HBSS, the cells were blocked with HBSS containing 3% BSA, 0.2% Tween 20 and 0.2% gelatin at room temperature for 1 hour, and incubated with primary antibody at mom temperature for 1 hour. Then, the cells were incubated with fluorochrome-conjugated species-specific secondary antibodies for 1 hour.
All the antibodies were diluted with 1% BSA-containing HBSS. Coverslips were mounted with anti-fading solution, and viewed using a ×63 objective lens of an LSM510 META (Zeiss) laser scanning confocal microscope.

[7] = FIG. 7A, MDA-MB-231 cells, different concentrations

COc1ccc(/C=C/[C@H]2CCCCC2c2ccc(OC)c(OC)c2)cc1OC (some centres unmarked) [Formula 4-1]
Relative NDPK activity (±S.D) (Nm23-H1 [1]): 2.41 (±0.29)

COc1ccc(/C=C/c2ccccc2-c2ccc(OC)c(OC)c2)cc1OC [Formula 3-1]
Relative NDPK activity (±S.D) (Nm23-H1 [1]): 4.11 (±0.16)

COc1ccc(/C=C/[C@H]2CCC=C[C@@H]2c2ccc(OC)c(OC)c2)cc1OC [Formula 2-1]
Kd (Nm23-H1 [2]; 2 nM ATP): 1.49 ± 0.03 µM
kon (Nm23-H1 [2]; 2 nM ATP): 71 ± 1 M⁻¹ s⁻¹
Kd (Nm23-H1 [2]; without ATP): 17.9 ± 0.2 µM
kon (Nm23-H1 [2]; without ATP): 78 ± 1 M⁻¹ s⁻¹
metastasis of the cells to the lung (MDA-MB-231 luc cells; FIG. 8, 10 mg/kg daily, 4 weeks): decreased
volume of the tumor (MDA-MB-231 luc cells; FIG. 9, 10 mg/kg daily): decreased
cells that metastasized to the lung (MDA-MB-231 luc cells; FIG. 10, 10 mg/kg daily): statistically significantly decreased
NDPK activity of Nm23-H1 (Nm23-H1 [1]; FIG. 3A, concentration dependence): increased depending on the concentration
V0, Km of the enzyme (NDPK activity depending on the concentration of UDP) (Nm23-H1 [1]; FIG. 3B): Km-type activity similar to that of a conventional enzyme activator
Relative NDPK activity (±S.D) (Nm23-H1 [1]): 4.04 (±0.13)
NDPK activity on Nm23-H2 (Nm23-H2): showed the same activity
direct interaction with Nm23-H1 (ITC) (Nm23-H1 [3]): occurred and was further enhanced in the presence of ATP
matrigel invasion (A549 cells): reduced
transwell migration (A549 cells): reduced
cell-based NDPK activity (MDA-MB-231 cells [4]): increased depending on the concentration
activity of Rac1 (Rac1; FIG. 6B, MDA-MB-231 cells, 16 hours): reduced the activity of Rac1 in a concentration-dependent manner
effect on Rac1 activity after knockdown of Nm23-H1 (Rac1; FIGS. 6C and 6D): abolished by knockdown of Nm23-H1
matrigel invasion (MDA-MB-231 cells [5]; [7]): reduced
transwell migration (MDA-MB-231 cells [5]; [7]): reduced
effect on migration/invasion after knockdown of Nm23-H1 and Nm23-H2 (MDA-MB-231 cells [5]; FIG. 7C): reduced by knockdown of Nm23-H1 and Nm23-H2
change of F-actin / cell morphology (MDA-MB-231 cells [6]): ruffles decreased and intercellular contact increased
